The results in this text go back to patent US20260234149A1, “FUSED BICYCLIC COMPOUND” (CHIA TAI TIANQING PHARMACEUTICAL GROUP CO., LTD., priority 2022, published 2026).

Bounds are passed on as bounds.

One assay deals with MDA-MB-436 cells. The assay can be described thus: Assay on inhibitory activity for MDA-MB-436 cell proliferation (CCK-8). Type of assay: cell-based. The note with it: 168 h incubation, CCK-8, absorbance at 450 nm. How it is done:
1.1 Assay on inhibitory activity for MDA-MB-436 cell proliferation MDA-MB-436 cells in a good growth state were collected into a centrifuge tube, adjusted to a cell density of 2×10^4 cells/mL using a complete medium (DMEM high glucose+[…]+1× insulin-transferrin-selenium (JTS-G)+16 μg/mL reduced glutathione), and seeded in a 96-well plate (100 μL/well), and the plate was incubated overnight in a cell incubator Compounds were added using a pipettor, such that the final concentrations of the compounds were 400 nM-0.02 nM. The wells were set in duplicate, and a control well was set. After 168 h of incubation in the cell incubator, the assay reagent CCK-8 (manufacturer: Dojindo Laboratories, Beijing; 10 μL/well) was added. After 1.5 h of incubation in the cell incubator, the absorbance was measured at 450 nm on a PerkinElmer Envision microplate reader.

Assay [1] addresses T1, PARP1 (Homo sapiens, UniProt P09874).
T1 construct: purchased BPS 80551
The assay can be described thus: Assay on PARP1 protein activity (chemiluminescence assay kit). As to conditions: PARP1 enzyme, 1 h room temperature. Type of assay: biochemical.

In a further assay the target is T2, PARP2 (Homo sapiens, UniProt Q9UGN5).
T2 construct: purchased BPS 80502
The assay can be described thus: PARP2-Tracer activity assay (FP method). Type of assay: binding. The method, then: (§1) The enzyme inhibition activity of the compounds against PARP1/2-Tracer was tested using the FP method. First, 100 nL of inhibitors with a final concentration of 1% DMSO were transferred to a 384-well reaction plate (Corning 4514) using Echo655. Then, 5 μL of PARP1/2 (BPS, Cat #80501/80502) enzyme solution was added to each well, followed by centrifugation at 1000 RPM for 1 min at room temperature, and the reaction was allowed to proceed for 10 min. Subsequently, 5 μL of Tracer (ICE, Cat #001315-009) solution was added to each well, followed by centrifugation at 1000 RPM for 1 min at room temperature, and the reaction was allowed to proceed for 60 min. PARP1/2 and Tracer were prepared in a buffer containing 50 mM Tris (pH 8.0), 10 mM MgCl2, 150 mM NaCl, and 0.001% Triox-100, with final concentrations of 5/10 nM and 2.5 nM, respectively. Finally, the FP signal was read using BMG (PHERAstar FSX), and the IC50 values and nonlinear regression curve fitting were obtained using GraphPad Prism software.

The target in assay [2] is T1, PARP1. The assay is described as follows: PARP1-Tracer activity assay (FP method). Type of assay: binding. The method, then:
as §1

T1 sequence (P09874 whole entry): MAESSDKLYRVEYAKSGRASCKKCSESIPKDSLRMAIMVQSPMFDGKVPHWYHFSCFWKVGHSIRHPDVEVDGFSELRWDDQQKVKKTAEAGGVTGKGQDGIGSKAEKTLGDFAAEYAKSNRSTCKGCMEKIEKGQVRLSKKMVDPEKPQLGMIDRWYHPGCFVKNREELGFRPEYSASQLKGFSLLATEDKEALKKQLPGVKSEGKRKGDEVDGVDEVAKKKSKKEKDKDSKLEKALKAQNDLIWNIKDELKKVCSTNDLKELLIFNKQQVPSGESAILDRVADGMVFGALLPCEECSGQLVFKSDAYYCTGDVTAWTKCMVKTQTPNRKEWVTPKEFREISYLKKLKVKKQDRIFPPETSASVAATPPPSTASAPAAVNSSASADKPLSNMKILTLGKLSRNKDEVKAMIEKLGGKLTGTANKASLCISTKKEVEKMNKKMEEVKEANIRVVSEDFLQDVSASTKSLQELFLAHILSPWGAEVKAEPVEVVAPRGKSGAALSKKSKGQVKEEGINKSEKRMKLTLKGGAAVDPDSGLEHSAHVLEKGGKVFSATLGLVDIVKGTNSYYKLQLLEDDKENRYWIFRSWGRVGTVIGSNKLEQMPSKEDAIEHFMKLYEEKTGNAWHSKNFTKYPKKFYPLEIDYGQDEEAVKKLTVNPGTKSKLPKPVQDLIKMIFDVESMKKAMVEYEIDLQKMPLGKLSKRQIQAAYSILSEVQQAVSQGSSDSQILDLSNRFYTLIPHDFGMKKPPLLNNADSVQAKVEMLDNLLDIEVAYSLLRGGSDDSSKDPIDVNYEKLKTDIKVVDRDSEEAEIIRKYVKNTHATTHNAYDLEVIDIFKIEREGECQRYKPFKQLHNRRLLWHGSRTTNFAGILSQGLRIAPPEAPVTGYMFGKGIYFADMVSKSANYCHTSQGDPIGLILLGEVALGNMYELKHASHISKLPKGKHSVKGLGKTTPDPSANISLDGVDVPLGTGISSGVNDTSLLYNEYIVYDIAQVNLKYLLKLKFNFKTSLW
T2 sequence (Q9UGN5 whole entry): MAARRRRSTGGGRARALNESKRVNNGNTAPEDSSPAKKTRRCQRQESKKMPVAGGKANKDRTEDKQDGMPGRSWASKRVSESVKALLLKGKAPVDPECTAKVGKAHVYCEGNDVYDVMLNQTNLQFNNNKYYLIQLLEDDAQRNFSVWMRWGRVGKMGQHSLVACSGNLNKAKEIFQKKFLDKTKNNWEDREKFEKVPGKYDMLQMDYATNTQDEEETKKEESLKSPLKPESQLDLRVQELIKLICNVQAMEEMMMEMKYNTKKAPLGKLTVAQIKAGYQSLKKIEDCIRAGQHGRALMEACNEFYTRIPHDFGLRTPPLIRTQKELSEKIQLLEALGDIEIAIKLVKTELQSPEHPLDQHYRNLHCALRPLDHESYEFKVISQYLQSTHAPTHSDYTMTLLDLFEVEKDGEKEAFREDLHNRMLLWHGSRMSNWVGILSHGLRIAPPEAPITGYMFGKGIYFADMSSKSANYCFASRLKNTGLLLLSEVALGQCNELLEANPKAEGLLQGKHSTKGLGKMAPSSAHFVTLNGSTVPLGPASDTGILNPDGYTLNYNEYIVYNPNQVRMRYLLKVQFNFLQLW

For `CNC(=O)n1cc2c(n1)CN(C1CN(Cc3ccc4cc(C(F)(F)F)c(=O)[nH]c4c3)[C@@H]1C)C2` (single isomer, unassigned) [Compound 35], the IC50 with MDA-MB-436 cells is at most 50 nM.
For `CNC(=O)n1cc2c(n1)CN(C1CN(Cc3ccc4cc(C(F)(F)F)c(=O)[nH]c4c3)[C@H]1C)C2` (single isomer, unassigned) [Compound 36], the IC50 on PARP1 [1] was at most 10 nM; in the assay with MDA-MB-436 cells (Homo sapiens, MDA-MB-436), at most 50 nM.
In turn, `CNC(=O)n1cc2c(n1)CN(C1CN(Cc3ccc4cc(C5CC5)c(=O)[nH]c4c3)[C@@H]1C)C2` (single isomer, unassigned) [Compound 40] yielded an IC50 in the assay with MDA-MB-436 cells of at most 50 nM.
With `CCc1cc2ccc(CN3CC(N4Cc5cn(C(=O)NC)nc5C4)C3)cc2[nH]c1=O` [Compound 1], the IC50 in the assay with MDA-MB-436 cells (Homo sapiens, MDA-MB-436) is at most 50 nM.
Consider `CNC(=O)n1cc2c(n1)CN(C1CN(Cc3ccc4cc(C5CC5)c(=O)[nH]c4c3)C1)C2` [Compound 2], for which the IC50 against PARP1 [1] was at most 1 nM.
`CCc1cc2ccc(CN3CC(N4Cc5cn(C(=O)NC6CC6)nc5C4)C3)cc2[nH]c1=O` [Compound 4] came in with an IC50 in the assay with MDA-MB-436 cells (Homo sapiens, MDA-MB-436) of at most 50 nM.
Same read-out and setting: the result for `CCc1cc2ncc(CN3CC(N4Cc5cn(C(=O)NC6CC6)nc5C4)C3)cc2[nH]c1=O` [Compound 5] reads at most 50 nM; that for `CCc1cc2ncc(CN3CC(N4Cc5nc(C(=O)NC)sc5C4)C3)cc2[nH]c1=O` [Compound 7], at most 50 nM.
On the same count and under the same terms, the result for `CCc1cc2ccc(CN3CC(N4Cc5cn(C(=O)NC(C)C)nc5C4)C3)cc2[nH]c1=O` [Compound 9] reads at most 50 nM; that for `CCc1cc2ncc(CN3CC(N4Cc5cn(C(=O)NC)nc5C4)C3)cc2[nH]c1=O` [Compound 10], at most 50 nM.
The same measure, in the same setting: in the case of `O=C(NC1CC1)n1cc2c(n1)CN(C1CN(Cc3ccc4cc(C5CC5)c(=O)[nH]c4c3)C1)C2` [Compound 11] it was at most 50 nM; in that of `CCNC(=O)n1cc2c(n1)CN(C1CN(Cc3ccc4cc(CC)c(=O)[nH]c4c3)C1)C2` [Compound 13], at most 50 nM; in that of `[2H]C([2H])([2H])NC(=O)n1cc2c(n1)CN(C1CN(Cc3ccc4cc(CC)c(=O)[nH]c4c3)C1)C2` [Compound 14], at most 50 nM.
`CNC(=O)n1cc2c(n1)CN(C1CN(Cc3ccc4c5c(c(=O)[nH]c4c3)CCC5)C1)C2` [Compound 15] yielded an IC50 in the assay on MDA-MB-436 cells (Homo sapiens, MDA-MB-436) of at most 50 nM.
In the assay on MDA-MB-436 cells (Homo sapiens, MDA-MB-436), `CCc1cc2c(F)cc(CN3CC(N4Cc5cn(C(=O)NC)nc5C4)C3)cc2[nH]c1=O` [Compound 16] showed an IC50 of at most 50 nM.
Consider `CNC(=O)n1cc2c(n1)CN(C1CN(Cc3ccc4cc(C(F)(F)F)c(=O)[nH]c4c3)C1)C2` [Compound 24], for which the IC50 against PARP2 is over 500 nM; on PARP1 [1] it was at most 1 nM; against PARP1 [2] it was 2.48 nM.
As to `CCc1cc2ccc(CN3C[C@@H](N4Cc5cn(C(=O)NC)nc5C4)[C@@H]3C)cc2[nH]c1=O` [Compound 39], the IC50 in the assay with MDA-MB-436 cells (Homo sapiens, MDA-MB-436) was at most 50 nM.
The same measure, in the same setting: in the case of `CNC(=O)n1cc2c(n1)CN([C@@H]1CN(Cc3ccc4cc(C5CC5)c(=O)[nH]c4c3)[C@H]1C)C2` [Compound 43] it was at most 50 nM.
Turning to `CCc1nc2ccc(CN3C[C@H](N4Cc5cn(C(=O)NC)nc5C4)[C@@H]3C)cc2[nH]c1=O` [Compound 45], the IC50 on PARP2 was over 500 nM; against PARP1 [1], at most 1 nM; against PARP1 [2] it was 2.52 nM.
Molecule `CCc1cc2ncc(CN3C[C@H](N4Cc5cn(C(=O)NC)nc5C4)[C@@H]3C)cc2[nH]c1=O` [Compound 47] had an IC50 with MDA-MB-436 cells of at most 50 nM.

Broadly, the IC50 is the point on the concentration scale where inhibition reaches its midpoint. The low end stands for greater potency in that assay, the high end for weaker potency in that assay.
